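Method: 48-hour compound exposure of cells in 96-well plates, five concentrations, linear interpolation of endpoints. TGI denotes the concentration required for complete inhibition of growth.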
Assays:
Experiment in all cases: NCI tumour cell line growth inhibition, 48 h
MCF7 breast = tested on: MCF7 breast
K-562 leukemia = tested on: K-562 leukemia
NCI-H522 lung = tested on: NCI-H522 lung
OVCAR-8 ovarian = tested on: OVCAR-8 ovarian
M14 melanoma = tested on: M14 melanoma
SK-MEL-28 melanoma = tested on: SK-MEL-28 melanoma
SNB-19 CNS = tested on: SNB-19 CNS
CAKI-1 renal = tested on: CAKI-1 renal
EKVX NSCLC = tested on: EKVX NSCLC
ACHN renal = tested on: ACHN renal
MALME-3M melanoma = tested on: MALME-3M melanoma
SF-539 CNS = tested on: SF-539 CNS
NCI-H226 lung = tested on: NCI-H226 lung
HCT-15 colon = tested on: HCT-15 colon
MDA-MB-231 breast = tested on: MDA-MB-231 breast
NCI/ADR-RES ovarian = tested on: NCI/ADR-RES ovarian
IGROV1 ovarian = tested on: IGROV1 ovarian
HCT-116 colon = tested on: HCT-116 colon
HOP-92 NSCLC = tested on: HOP-92 NSCLC
OVCAR-4 ovarian = tested on: OVCAR-4 ovarian

SMILES	TGI (MCF7 breast) [µM]	TGI (K-562 leukemia) [µM]	TGI (NCI-H522 lung) [µM]	TGI (OVCAR-8 ovarian) [µM]	TGI (M14 melanoma) [µM]	TGI (SK-MEL-28 melanoma) [µM]	TGI (SNB-19 CNS) [µM]	TGI (CAKI-1 renal) [µM]	TGI (EKVX NSCLC) [µM]	TGI (ACHN renal) [µM]	TGI (MALME-3M melanoma) [µM]	TGI (SF-539 CNS) [µM]	TGI (NCI-H226 lung) [µM]	TGI (HCT-15 colon) [µM]	TGI (MDA-MB-231 breast) [µM]	TGI (NCI/ADR-RES ovarian) [µM]	TGI (IGROV1 ovarian) [µM]	TGI (HCT-116 colon) [µM]	TGI (HOP-92 NSCLC) [µM]	TGI (OVCAR-4 ovarian) [µM]
OCCCCn1cc(Cn2ncc3c(NCc4ccccc4)ncnc32)nn1	> 100	> 100	> 100	> 100	> 100	> 100	> 100	> 100	> 100	> 100	> 100	> 100	> 100	> 100	> 100	> 100	> 100	> 100	> 100	> 100
O=S(=O)(O)c1ccc2c(N=Nc3ccc(S(=O)(=O)O)c4ccccc34)c(O)c(S(=O)(=O)O)cc2c1	> 100	> 100	> 100	> 100	> 100	> 100	> 100	> 100	> 100	> 100	> 100	> 100	> 100	> 100	> 100	> 100	> 100	> 100	> 100	> 100
COc1cc2cc3c4c(cc(OC)c(OC)c4c2cc1OC)CCN3C	> 36.4	> 50	23.9	> 50	> 50	> 50	> 50	25.7	> 50	31.7	24.9	40.5	26.7	> 47.8	> 44.1	> 48.2	> 43.7	> 25.7	> 50	12

— PubChem BioAssay (NCI)
